# In ChEMBL document CHEMBL4680227, “Design and synthesis of selective degraders of EGFR mutant” (Eur J Med Chem, 2020):
# Columns and labels:
# [1] = molecular target: von Hippel-Lindau disease tumor suppressor/Epidermal growth factor receptor (Homo sapiens, UniProt P00533+P40337); assay: Protac activity at VHL/EGFR in human A431 cells assessed as EGFR degradation by Western blot analysis; type: cell-based; conditions: a-431
# [2] = molecular target: E3 ubiquitin-protein ligase Mdm2/Epidermal growth factor receptor (Homo sapiens, UniProt Q00987+P00533); assay: Protac activity at MDM2/EGFR in human A431 cells assessed as EGFR degradation by Western blot analysis; type: cell-based; conditions: a-431
# [3] = molecular target: Baculoviral IAP repeat-containing protein 2/Epidermal growth factor receptor (Homo sapiens, UniProt P00533+Q13490); assay: Protac activity at cIAP1/EGFR in human A431 cells assessed as EGFR degradation by Western blot analysis; type: cell-based; conditions: a-431
# [4] = molecular target: von Hippel-Lindau disease tumor suppressor/Epidermal growth factor receptor (Homo sapiens, UniProt P00533+P40337, T790M/L858R); assay: (§1) Protac activity at VHL/EGFR L858R/T790M mutant in human NCI-H1975 cells assessed as EGFR degradation by Western blot analysis; type: cell-based
# [5] = molecular target: E3 ubiquitin-protein ligase Mdm2/Epidermal growth factor receptor (Homo sapiens, UniProt Q00987+P00533, T790M/L858M); assay: (§2) Protac activity at MDM2/EGFR L858R/T790M mutant in human NCI-H1975 cells assessed as EGFR degradation by Western blot analysis; type: cell-based
# [6] = system: E3 ubiquitin-protein ligase Mdm2/Epidermal growth factor receptor (Homo sapiens), Q00987+P00533 [T790M,L858M]; assay: as §2; type: cell-based
# [7] = system: von Hippel-Lindau disease tumor suppressor/Epidermal growth factor receptor (Homo sapiens), P00533+P40337 [L858R,T790M]; assay: as §1; type: cell-based
# [8] = molecular target: Epidermal growth factor receptor (Homo sapiens, UniProt P00533, T790M/L858R); assay: Induction of EGFR L858R/T790M mutant degradation in human NCI-H1975 cells by Western blot analysis
# [9] = molecular target: Epidermal growth factor receptor (Homo sapiens, UniProt P00533); assay: Induction of EGFR degradation in human A431 cells by Western blot analysis; conditions: a-431
compound,measurement,setting,value
C=CC(=O)Nc1cccc(-n2c(=O)cc(C)c3cnc(Nc4ccc(N5CCN(C(=O)CCCCC(=O)N[C@H](C(=O)N6C[C@H](O)C[C@H]6C(=O)NCc6ccc(-c7scnc7C)cc6)C(C)(C)C)CC5)cc4OC)nc32)c1,DC50,[1],> 2000 nM
C=CC(=O)Nc1cccc(-n2c(=O)cc(C)c3cnc(Nc4ccc(N5CCN(CCCCCCCCCCCCNC(=O)c6ccc(NC(=O)[C@@H]7N[C@@H](CC(C)(C)C)[C@](C#N)(c8ccc(Cl)cc8F)[C@H]7c7cccc(Cl)c7F)c(OC)c6)CC5)cc4OC)nc32)c1,DC50,[2],> 2000 nM
C=CC(=O)Nc1cccc(-n2c(=O)cc(C)c3cnc(Nc4ccc(N5CCN(C(=O)CCCCCCCCCCCNC(=O)[C@H](CC(C)C)NC(=O)[C@@H](O)[C@H](N)Cc6ccccc6)CC5)cc4OC)nc32)c1,DC50,[3],> 2000 nM
C=CC(=O)Nc1cccc(-n2c(=O)cc(C)c3cnc(Nc4ccc(N5CCN(CCCC(=O)N[C@H](C(=O)N6C[C@H](O)C[C@H]6C(=O)NCc6ccc(-c7scnc7C)cc6)C(C)(C)C)CC5)cc4OC)nc32)c1,DC50,[1],> 2000 nM
C=CC(=O)Nc1cccc(-n2c(=O)cc(C)c3cnc(Nc4ccc(N5CCN(CCCCCCCC(=O)N[C@H](C(=O)N6C[C@H](O)C[C@H]6C(=O)NCc6ccc(-c7scnc7C)cc6)C(C)(C)C)CC5)cc4OC)nc32)c1,DC50,[1],> 2000 nM
same,DC50,[4],466 nM
C=CC(=O)Nc1cccc(-n2c(=O)cc(C)c3cnc(Nc4ccc(N5CCN(C(=O)CCCCCCCCCCCNC(=O)c6ccc(NC(=O)[C@@H]7N[C@@H](CC(C)(C)C)[C@](C#N)(c8ccc(Cl)cc8F)[C@H]7c7cccc(Cl)c7F)c(OC)c6)CC5)cc4OC)nc32)c1,DC50,[5],264 nM
same,Activity,[6],Dose-dependent effect
same,DC50,[2],> 2000 nM
C=CC(=O)Nc1cccc(-n2c(=O)cc(C)c3cnc(Nc4ccc(N5CCN(C(=O)CCCCCCCCCCC(=O)N[C@H](C(=O)N6C[C@H](O)C[C@H]6C(=O)NCc6ccc(-c7scnc7C)cc6)C(C)(C)C)CC5)cc4OC)nc32)c1,DC50,[1],> 2000 nM
same,Activity,[7],Dose-dependent effect
C=CC(=O)Nc1cccc(-n2c(=O)cc(C)c3cnc(Nc4ccc(N5CCN(C)CC5)cc4OC)nc32)c1,DC50,[8],> 2000 nM
same,DC50,[9],> 2000 nM
C=CC(=O)Nc1cccc(-n2c(=O)cc(C)c3cnc(Nc4ccc(N5CCN(C(=O)CCCCCNC(=O)c6ccc(NC(=O)[C@@H]7N[C@@H](CC(C)(C)C)[C@](C#N)(c8ccc(Cl)cc8F)[C@H]7c7cccc(Cl)c7F)c(OC)c6)CC5)cc4OC)nc32)c1,DC50,[5],77 nM
same,DC50,[2],> 2000 nM
